The structures appear in SMILES notation.

The first assay deals with BXPC-3. Nature of the assay: Antitumor activity against human BxPC3 cells by sulforhodamine B assay.
Conditions: not given
In kind it is functional.
In general, GI50 refers to the concentration that inhibits growth by half. In the case of `COc1cc(/C=C\c2ccc(OC)c(OP(=O)([O-])[O-])c2OP(=O)([O-])[O-])cc(OP(=O)([O-])[O-])c1OC.[Rb+].[Rb+].[Rb+].[Rb+].[Rb+].[Rb+]`, the GI50 was > 10 µg/mL.
As for `COc1cc(/C=C\c2ccc(OC)c(OP(=O)([O-])[O-])c2OP(=O)([O-])[O-])cc(OC)c1OC.[Na+].[Na+].[Na+].[Na+]`, the GI50 was > 10 µg/mL.
In turn, `COc1cc(/C=C\c2ccc(OC)c(OP(=O)([O-])[O-])c2OP(=O)([O-])[O-])cc(OP(=O)([O-])[O-])c1OC.[Li+].[Li+].[Li+].[Li+].[Li+].[Li+]` returned a GI50 of 5.8 µg/mL.
Take `COc1cc(/C=C\c2ccc(OC)c(OP(=O)([O-])[O-])c2OP(=O)([O-])[O-])cc2c1OCO2.[Li+].[Li+].[Li+].[Li+]`: the 50% growth inhibitory concentration (GI50) is > 10 µg/mL.
With `COc1cc(/C=C\c2ccc(OC)c(OP(=O)([O-])[O-])c2OP(=O)([O-])[O-])cc(OP(=O)([O-])[O-])c1OC.[Zn+2].[Zn+2].[Zn+2]`, the 50% growth inhibitory concentration (GI50) was > 10 µg/mL.

The next assay relates to MCF7. The experiment in a line: Antitumor activity against human MCF7 cells by sulforhodamine B assay. The format is functional.
Conditions: not given
In turn, `COc1cc(/C=C\c2ccc(OC)c(OP(=O)([O-])[O-])c2OP(=O)([O-])[O-])cc(OP(=O)([O-])[O-])c1OC.[Rb+].[Rb+].[Rb+].[Rb+].[Rb+].[Rb+]` had a concentration for 50% growth inhibition (GI50) of 3.9 µg/mL.
In turn, `COc1cc(/C=C\c2ccc(OC)c(OP(=O)([O-])[O-])c2OP(=O)([O-])[O-])cc(OP(=O)([O-])[O-])c1OC.[Li+].[Li+].[Li+].[Li+].[Li+].[Li+]` yielded a 50% growth inhibitory concentration (GI50) of 0.36 µg/mL.
On the same count and under the same terms, in the case of `COc1cc(/C=C\c2ccc(OC)c(OP(=O)([O-])[O-])c2OP(=O)([O-])[O-])cc2c1OCO2.[Li+].[Li+].[Li+].[Li+]` it was 1.2 µg/mL; in that of `COc1cc(/C=C\c2ccc(OC)c(OP(=O)([O-])[O-])c2OP(=O)([O-])[O-])cc(OP(=O)([O-])[O-])c1OC.[Zn+2].[Zn+2].[Zn+2]`, 3.5 µg/mL.

The subject of the next assay is SF-268. The experiment in a line: Antitumor activity against human SF268 cells by sulforhodamine B assay. The format is functional.
Conditions: not given
A general note: The SRB assay estimates cell density from bound dye.
On to `COc1cc(/C=C\c2ccc(OC)c(OP(=O)([O-])[O-])c2OP(=O)([O-])[O-])cc(OP(=O)([O-])[O-])c1OC.[Rb+].[Rb+].[Rb+].[Rb+].[Rb+].[Rb+]`, for which the GI50 was determined as 4.3 µg/mL.
`COc1cc(/C=C\c2ccc(OC)c(OP(=O)([O-])[O-])c2OP(=O)([O-])[O-])cc(OP(=O)([O-])[O-])c1OC.[Li+].[Li+].[Li+].[Li+].[Li+].[Li+]` returned a 50% growth inhibitory concentration (GI50) of 0.76 µg/mL.
Compound `COc1cc(/C=C\c2ccc(OC)c(OP(=O)([O-])[O-])c2OP(=O)([O-])[O-])cc2c1OCO2.[Li+].[Li+].[Li+].[Li+]` yielded a 50% growth inhibitory concentration (GI50) of 2.4 µg/mL.
The same measure, in the same setting: in the case of `COc1cc(/C=C\c2ccc(OC)c(OP(=O)([O-])[O-])c2OP(=O)([O-])[O-])cc(OP(=O)([O-])[O-])c1OC.[Zn+2].[Zn+2].[Zn+2]` it was 4.5 µg/mL.

A further assay has as its system NCI-H460. The experiment in a line: Antitumor activity against human NCI-H460 cells by sulforhodamine B assay. The format is functional.
Conditions: not given
Consider `COc1cc(/C=C\c2ccc(OC)c(OP(=O)([O-])[O-])c2OP(=O)([O-])[O-])cc(OP(=O)([O-])[O-])c1OC.[Rb+].[Rb+].[Rb+].[Rb+].[Rb+].[Rb+]`, for which the concentration for 50% growth inhibition (GI50) turned out to be 3.3 µg/mL.
`COc1cc(/C=C\c2ccc(OC)c(OP(=O)([O-])[O-])c2OP(=O)([O-])[O-])cc(OC)c1OC.[Na+].[Na+].[Na+].[Na+]`: the concentration for 50% growth inhibition (GI50) amounted to 3.3 µg/mL.
For `COc1cc(/C=C\c2ccc(OC)c(OP(=O)([O-])[O-])c2OP(=O)([O-])[O-])cc(OP(=O)([O-])[O-])c1OC.[Li+].[Li+].[Li+].[Li+].[Li+].[Li+]`, the 50% growth inhibitory concentration (GI50) stood at 0.35 µg/mL.
Same read-out and setting: under `COc1cc(/C=C\c2ccc(OC)c(OP(=O)([O-])[O-])c2OP(=O)([O-])[O-])cc2c1OCO2.[Li+].[Li+].[Li+].[Li+]` stands 2.7 µg/mL.
Same read-out and setting: in the case of `COc1cc(/C=C\c2ccc(OC)c(OP(=O)([O-])[O-])c2OP(=O)([O-])[O-])cc(OP(=O)([O-])[O-])c1OC.[Zn+2].[Zn+2].[Zn+2]` it was 3.5 µg/mL.

The subject of another assay is KM-20L2. Nature of the assay: Antitumor activity against human KM20L2 cells by sulforhodamine B assay. The format is functional.
Conditions: not given
Consider `COc1cc(/C=C\c2ccc(OC)c(OP(=O)([O-])[O-])c2OP(=O)([O-])[O-])cc(OP(=O)([O-])[O-])c1OC.[Rb+].[Rb+].[Rb+].[Rb+].[Rb+].[Rb+]`, for which the GI50 was > 10 µg/mL.
The same measure, in the same setting: in the case of `COc1cc(/C=C\c2ccc(OC)c(OP(=O)([O-])[O-])c2OP(=O)([O-])[O-])cc(OC)c1OC.[Na+].[Na+].[Na+].[Na+]` it was > 10 µg/mL; in that of `COc1cc(/C=C\c2ccc(OC)c(OP(=O)([O-])[O-])c2OP(=O)([O-])[O-])cc(OP(=O)([O-])[O-])c1OC.[Li+].[Li+].[Li+].[Li+].[Li+].[Li+]`, 6.1 µg/mL; in that of `COc1cc(/C=C\c2ccc(OC)c(OP(=O)([O-])[O-])c2OP(=O)([O-])[O-])cc2c1OCO2.[Li+].[Li+].[Li+].[Li+]`, > 10 µg/mL.
Take `COc1cc(/C=C\c2ccc(OC)c(OP(=O)([O-])[O-])c2OP(=O)([O-])[O-])cc(OP(=O)([O-])[O-])c1OC.[Zn+2].[Zn+2].[Zn+2]`: the GI50 is > 10 µg/mL.

The next assay concerns DU-145. Nature of the assay: Antitumor activity against human DU145 cells by sulforhodamine B assay. The format is functional.
Conditions: not given
In turn, `COc1cc(/C=C\c2ccc(OC)c(OP(=O)([O-])[O-])c2OP(=O)([O-])[O-])cc(OP(=O)([O-])[O-])c1OC.[Rb+].[Rb+].[Rb+].[Rb+].[Rb+].[Rb+]` gave a 50% growth inhibitory concentration (GI50) of 3.9 µg/mL.
For the compound `COc1cc(/C=C\c2ccc(OC)c(OP(=O)([O-])[O-])c2OP(=O)([O-])[O-])cc(OC)c1OC.[Na+].[Na+].[Na+].[Na+]`, the GI50 is 2.7 µg/mL.
Compound `COc1cc(/C=C\c2ccc(OC)c(OP(=O)([O-])[O-])c2OP(=O)([O-])[O-])cc(OP(=O)([O-])[O-])c1OC.[Li+].[Li+].[Li+].[Li+].[Li+].[Li+]` showed a concentration for 50% growth inhibition (GI50) of 0.82 µg/mL.
Consider `COc1cc(/C=C\c2ccc(OC)c(OP(=O)([O-])[O-])c2OP(=O)([O-])[O-])cc2c1OCO2.[Li+].[Li+].[Li+].[Li+]`, for which the GI50 amounted to 2.1 µg/mL.
Same read-out and setting: under `COc1cc(/C=C\c2ccc(OC)c(OP(=O)([O-])[O-])c2OP(=O)([O-])[O-])cc(OP(=O)([O-])[O-])c1OC.[Zn+2].[Zn+2].[Zn+2]` stands 4.6 µg/mL.

Tested on in another assay: not listed separately
Nature of the assay: Antitumor activity against human KAT4 cells by sulforhodamine B assay. The format is functional. As to conditions: KAT-4.
Regarding `COc1cc(/C=C\c2ccc(OC)c(OP(=O)([O-])[O-])c2OP(=O)([O-])[O-])cc(OP(=O)([O-])[O-])c1OC.[Zn+2].[Zn+2].[Zn+2]`, the GI50 is > 10 µg/mL.

The subject of a further assay is SW-1736. Nature of the assay: Antitumor activity against human SW1736 cells by sulforhodamine B assay. The format is functional.
Conditions: not given
As to `COc1cc(/C=C\c2ccc(OC)c(OP(=O)([O-])[O-])c2OP(=O)([O-])[O-])cc(OP(=O)([O-])[O-])c1OC.[Zn+2].[Zn+2].[Zn+2]`, the GI50 stood at 1.3 µg/mL.

In the next assay the test system is P388. Nature of the assay: In vitro growth inhibition against mouse P388 cells.
Conditions: not given
Compound `COc1cc(/C=C\c2ccc(OC)c(OP(=O)([O-])[O-])c2OP(=O)([O-])[O-])cc(OP(=O)([O-])[O-])c1OC.[Rb+].[Rb+].[Rb+].[Rb+].[Rb+].[Rb+]` yielded an ED50 of 0.26 µg/mL.
Still for that read-out and setting: under `COc1cc(/C=C\c2ccc(OC)c(OP(=O)([O-])[O-])c2OP(=O)([O-])[O-])cc(OC)c1OC.[Na+].[Na+].[Na+].[Na+]` stands 0.3 µg/mL; under `COc1cc(/C=C\c2ccc(OC)c(OP(=O)([O-])[O-])c2OP(=O)([O-])[O-])cc(OP(=O)([O-])[O-])c1OC.[Li+].[Li+].[Li+].[Li+].[Li+].[Li+]`, 0.028 µg/mL.
Still for that read-out and setting: under `COc1cc(/C=C\c2ccc(OC)c(OP(=O)([O-])[O-])c2OP(=O)([O-])[O-])cc2c1OCO2.[Li+].[Li+].[Li+].[Li+]` stands 0.3 µg/mL.
In the case of `COc1cc(/C=C\c2ccc(OC)c(OP(=O)([O-])[O-])c2OP(=O)([O-])[O-])cc(OP(=O)([O-])[O-])c1OC.[Zn+2].[Zn+2].[Zn+2]`, the ED50 stood at 0.15 µg/mL.

Values taken from ChEMBL document CHEMBL1151989, “Antineoplastic agents. 578. Synthesis of stilstatins 1 and 2 and their water-soluble prodrugs” (J Nat Prod, 2009).
